For 18 molecules, T/C results are on record in PubChem BioAssay AID212 (DTP/NCI, 2004).

Each structure is given as a SMILES string. Values joined by “and” are separate entries in the source; they are usually repeats but may differ in a detail not shown here. Identical values can stand only once. Inconclusive results are not listed.

In this experiment the test system is BDF1 mice, colon carcinoma 38 sc, T/C %. Kind of experiment: NCI In Vivo Anticancer Drug Screen. Data for tumor model Colon Carcinoma 38 (subcutaneous) in B6D2F1 (BDF1) mice. To be noted: endpoint: median tumor weight (est.), higher = larger tumour. On the procedure: The antitumor activity of compounds was measured in mice bearing transplantable tumors. Survival or tumor size were measured and the results are expressed as the measurement made in the treated group (T) divided by the measurement made in the vehicle treated control group (C). The tumor model used in this assay is Colon Carcinoma 38 (subcutaneous) in B6D2F1 (BDF1) mice

Setting [1] is: dose: 1.5 mg/kg/injection, schedule: Q07DX002 (ip), vehicle: saline.
Where [2] appears, read: dose: 3.0 mg/kg/injection, schedule: Q07DX002 (ip), vehicle: saline.
Setting [3] is: dose: 6.0 mg/kg/injection, schedule: Q07DX002 (ip), vehicle: saline.
[4] abbreviates: dose: 12.0 mg/kg/injection, schedule: Q07DX002 (ip), vehicle: saline.
The mark [5] stands for this setting: dose: 12.5 mg/kg/injection, schedule: Q07DX002 (ip), vehicle: Klucel (hydroxypropylcellulose) (HPC).
Where [6] appears, read: dose: 25.0 mg/kg/injection, schedule: Q07DX002 (ip), vehicle: Klucel (hydroxypropylcellulose) (HPC).
The mark [7] stands for this setting: dose: 50.0 mg/kg/injection, schedule: Q07DX002 (ip), vehicle: Klucel (hydroxypropylcellulose) (HPC).
Setting [8] is: dose: 50.0 mg/kg/injection, schedule: Q07DX002 (ip), vehicle: saline with Tween-80.
Setting [9] is: dose: 100.0 mg/kg/injection, schedule: Q07DX002 (ip), vehicle: Klucel (hydroxypropylcellulose) (HPC).
The mark [10] stands for this setting: dose: 100.0 mg/kg/injection, schedule: Q07DX002 (ip), vehicle: saline with Tween-80.
Setting [11] is: dose: 200.0 mg/kg/injection, schedule: Q07DX002 (ip), vehicle: saline with Tween-80.
Setting [12] is: dose: 400.0 mg/kg/injection, schedule: Q07DX002 (ip), vehicle: Klucel (hydroxypropylcellulose) (HPC).
Where [13] appears, read: dose: 400.0 mg/kg/injection, schedule: Q07DX002 (ip), vehicle: saline with Tween-80.
[14] abbreviates: dose: 800.0 mg/kg/injection, schedule: Q07DX002 (ip), vehicle: saline with Tween-80.
[15] abbreviates: dose: 25.0 mg/kg/injection, schedule: Q07DX002 (ip), vehicle: saline with Tween-80.
[16] abbreviates: dose: 12.5 mg/kg/injection, schedule: Q07DX002 (ip), vehicle: saline with Tween-80.

With `O=c1[nH]cnc2c1ccn2C1OC(CO)C(O)C1O` (configuration not stated), the T/C runs as follows: under setting [1], 88 % of control; under setting [2], 118 % of control; under setting [3], 100 % of control; under setting [4], 86 % of control; (dose: 24.0 mg/kg/injection, schedule: Q07DX002 (ip), vehicle: saline) 63 % of control.

Regarding `Cc1ncc(CNC(=O)N(CCCl)N=O)c(N)n1`, the T/C was 82 % of control (dose: 6.25 mg/kg/injection, schedule: Q07DX003 (ip), vehicle: saline); 73 % of control under setting [5]; 88 % of control (dose: 12.5 mg/kg/injection, schedule: Q07DX003 (ip), vehicle: saline); 32 % of control under setting [6]; 31 % of control (dose: 25.0 mg/kg/injection, schedule: Q07DX003 (ip), vehicle: saline).

Take `Cc1[nH]c(=O)[nH]c(=O)c1N(CCF)CCCl`: the T/C by setting is: (dose: 16.0 mg/kg/injection, schedule: Q07DX002 (ip), vehicle: Klucel (hydroxypropylcellulose) (HPC)) 69 % of control and 71 % of control; (dose: 32.0 mg/kg/injection, schedule: Q07DX002 (ip), vehicle: Klucel (hydroxypropylcellulose) (HPC)) 67 % of control and 79 % of control and 82 % of control; (dose: 64.0 mg/kg/injection, schedule: Q07DX002 (ip), vehicle: Klucel (hydroxypropylcellulose) (HPC)) 38 % of control; (dose: 64.0 mg/kg/injection, schedule: Q07DX003 (ip), vehicle: Klucel (hydroxypropylcellulose) (HPC)) 21 % of control and 28 % of control.

Turning to `c1cc(OCC2CO2)ccc1OCC1CO1` (configuration not stated), the T/C by setting is: under setting [6], 76 % of control; under setting [7], 96 % of control; under setting [8], 113 % of control; under setting [9], 67 % of control; under setting [10], 94 % of control; (dose: 200.0 mg/kg/injection, schedule: Q07DX002 (ip), vehicle: Klucel (hydroxypropylcellulose) (HPC)) 63 % of control. The T/C under setting [11] is 82 % of control, the T/C under setting [12] was 77 % of control, the T/C under setting [13] was 102 % of control and the T/C under setting [14] was 77 % of control.

On to `CS(=O)(=O)CS(=O)(=O)OCCCl`, for which the T/C under setting [1] was 86 % of control; the T/C under setting [2] is 91 % of control; the T/C under setting [3] is 97 % of control; the T/C under setting [4] was 155 % of control; the T/C under setting [15] was 73 % of control.

For `O=C(Nc1nncs1)c1ccncc1`, the T/C was 93 % of control and 98 % of control under setting [16]; 91 % of control and 96 % of control under setting [8]; 102 % of control under setting [10]; 81 % of control under setting [11]; 69 % of control and 93 % of control under setting [13].

`N#CCCSC(=S)C1CCCC1=N` (configuration not stated): the T/C reads like this: under setting [15], 107 % of control; under setting [8], 95 % of control; under setting [10], 90 % of control; under setting [11], 99 % of control; under setting [13], 71 % of control; under setting [14], 86 % of control.

Take `COc1cc(OC)c(OC)cc1/C=C\c1ccnc2ccccc12`: the T/C is, setting by setting: under setting [5], 93 % of control; under setting [6], 120 % of control; under setting [7], 160 % of control and 171 % of control; under setting [9], 85 % of control and 97 % of control; under setting [12], 120 % of control.

For the molecule `O=C1C2(Cl)C3(Cl)C4(Cl)C(Cl)(Cl)C5(Cl)[C@]3(Cl)C1(Cl)[C@]5(Cl)C24Cl` (some centres not stated), the T/C was 88 % of control under setting [6], 75 % of control under setting [7] and 44 % of control under setting [9].

With `COc1cc2c(cc1O)N=C[C@@H]1CCC(O)N1C2=O` (mixture of isomers), the T/C is 72 % of control and 78 % of control (dose: 1.0 mg/kg/injection, schedule: Q07DX002 (ip), vehicle: saline); 62 % of control (dose: 1.1 mg/kg/injection, schedule: Q07DX002 (ip), vehicle: distilled water + Tween-80); 85 % of control (dose: 2.2 mg/kg/injection, schedule: Q07DX002 (ip), vehicle: distilled water + Tween-80); 121 % of control and 105 % of control (dose: 4.0 mg/kg/injection, schedule: Q07DX002 (ip), vehicle: saline); 76 % of control (dose: 4.5 mg/kg/injection, schedule: Q07DX002 (ip), vehicle: distilled water + Tween-80); 81 % of control and 82 % of control (dose: 8.0 mg/kg/injection, schedule: Q07DX002 (ip), vehicle: saline). In addition, the T/C (dose: 9.0 mg/kg/injection, schedule: Q07DX002 (ip), vehicle: distilled water + Tween-80) was 66 % of control and the T/C (dose: 16.0 mg/kg/injection, schedule: Q07DX002 (ip), vehicle: saline) is 60 % of control.

As to `Nc1ccc(Cn2ccc3c4c(N)nc(N)nc4ccc32)cc1`, the T/C is 90 % of control (dose: 1.25 mg/kg/injection, schedule: Q07DX002 (ip), vehicle: saline with Tween-80); 93 % of control and 106 % of control (dose: 2.5 mg/kg/injection, schedule: Q07DX002 (ip), vehicle: saline with Tween-80); 59 % of control (dose: 40.0 mg/kg/injection, schedule: Q07DX002 (ip), vehicle: saline with Tween-80).

As for `O=c1cc(-c2ccccc2)[nH]c2c1CCCC2`, the T/C (dose: 900.0 mg/kg/injection, schedule: Q07DX002 (ip), vehicle: saline with Tween-80) is 101 % of control.

Consider `O=NN(CCCl)C(=O)Oc1ccc(OC(=O)N(CCCl)N=O)cc1`, for which the T/C by setting is: (dose: 6.25 mg/kg/injection, schedule: Q07DX002 (ip), vehicle: Klucel (hydroxypropylcellulose) (HPC)) 75 % of control; under setting [5], 72 % of control; under setting [6], 85 % of control; under setting [7], 54 % of control.

Consider `C[PH+](C)C.C[PH+](C)C.[Au]`, for which the T/C was 99 % of control (dose: 1.25 mg/kg/injection, schedule: Q07DX002 (ip), vehicle: saline); 84 % of control (dose: 2.5 mg/kg/injection, schedule: Q07DX002 (ip), vehicle: saline); 87 % of control (dose: 5.0 mg/kg/injection, schedule: Q07DX002 (ip), vehicle: saline); 65 % of control (dose: 10.0 mg/kg/injection, schedule: Q07DX002 (ip), vehicle: saline).

Consider `CCc1ccc(C2=C(O)C(=O)C(c3ccccc3)=C(O)C2=O)cc1`, for which the T/C by setting is: under setting [5], 101 % of control; under setting [6], 81 % of control; under setting [7], 50 % of control.

In the case of `O/N=C/c1ccccc1O.O/N=C/c1ccccc1O.[Cu]`, the T/C (dose: 3.12 mg/kg/injection, schedule: Q07DX002 (ip), vehicle: saline with Tween-80) is 89 % of control and 100 % of control; the T/C (dose: 6.25 mg/kg/injection, schedule: Q07DX002 (ip), vehicle: saline with Tween-80) is 92 % of control and 100 % of control; the T/C under setting [16] is 102 % of control and 108 % of control; the T/C under setting [15] was 87 % of control and 104 % of control.

Take `CCSC(=O)N1c2ccc(OC)cc2C=CC1C#N` (configuration not stated): the T/C by setting is: under setting [16], 70 % of control; under setting [15], 81 % of control; under setting [10], 107 % of control; (dose: 175.0 mg/kg/injection, schedule: Q07DX002 (ip), vehicle: saline with Tween-80) 97 % of control; (dose: 350.0 mg/kg/injection, schedule: Q07DX002 (ip), vehicle: saline with Tween-80) 115 % of control and 100 % of control; under setting [13], 61 % of control. Moreover, the T/C (dose: 1400.0 mg/kg/injection, schedule: Q07DX002 (ip), vehicle: saline with Tween-80) was 75 % of control and 89 % of control.

Turning to `CCN1C=C/C(=C\C=C/c2cc[n+](CC)c3ccccc23)c2ccccc21`, the T/C by setting is: (dose: 0.06 mg/kg/injection, schedule: Q07DX002 (ip), vehicle: saline) 91 % of control; (dose: 0.12 mg/kg/injection, schedule: Q07DX002 (ip), vehicle: saline) 120 % of control; (dose: 62.0 micrograms/kg/injection, schedule: Q07DX002 (ip), vehicle: saline) 101 % of control; (dose: 125.0 micrograms/kg/injection, schedule: Q07DX002 (ip), vehicle: saline) 123 % of control; (dose: 250.0 micrograms/kg/injection, schedule: Q07DX002 (ip), vehicle: saline) 156 % of control.
